Data: ChEMBL document CHEMBL1150134, “Triterpenoid constituents isolated from the bark of Abies sachalinensis” (J Nat Prod, 2002)
Calls of active or inactive are those of the source. No cut-off for these calls is given here.

biological target: T1, DNA topoisomerase 2-alpha (Homo sapiens, UniProt P11388); experiment: Inhibition of human DNA topoisomerase 2alpha
T1 sequence (P11388 whole entry): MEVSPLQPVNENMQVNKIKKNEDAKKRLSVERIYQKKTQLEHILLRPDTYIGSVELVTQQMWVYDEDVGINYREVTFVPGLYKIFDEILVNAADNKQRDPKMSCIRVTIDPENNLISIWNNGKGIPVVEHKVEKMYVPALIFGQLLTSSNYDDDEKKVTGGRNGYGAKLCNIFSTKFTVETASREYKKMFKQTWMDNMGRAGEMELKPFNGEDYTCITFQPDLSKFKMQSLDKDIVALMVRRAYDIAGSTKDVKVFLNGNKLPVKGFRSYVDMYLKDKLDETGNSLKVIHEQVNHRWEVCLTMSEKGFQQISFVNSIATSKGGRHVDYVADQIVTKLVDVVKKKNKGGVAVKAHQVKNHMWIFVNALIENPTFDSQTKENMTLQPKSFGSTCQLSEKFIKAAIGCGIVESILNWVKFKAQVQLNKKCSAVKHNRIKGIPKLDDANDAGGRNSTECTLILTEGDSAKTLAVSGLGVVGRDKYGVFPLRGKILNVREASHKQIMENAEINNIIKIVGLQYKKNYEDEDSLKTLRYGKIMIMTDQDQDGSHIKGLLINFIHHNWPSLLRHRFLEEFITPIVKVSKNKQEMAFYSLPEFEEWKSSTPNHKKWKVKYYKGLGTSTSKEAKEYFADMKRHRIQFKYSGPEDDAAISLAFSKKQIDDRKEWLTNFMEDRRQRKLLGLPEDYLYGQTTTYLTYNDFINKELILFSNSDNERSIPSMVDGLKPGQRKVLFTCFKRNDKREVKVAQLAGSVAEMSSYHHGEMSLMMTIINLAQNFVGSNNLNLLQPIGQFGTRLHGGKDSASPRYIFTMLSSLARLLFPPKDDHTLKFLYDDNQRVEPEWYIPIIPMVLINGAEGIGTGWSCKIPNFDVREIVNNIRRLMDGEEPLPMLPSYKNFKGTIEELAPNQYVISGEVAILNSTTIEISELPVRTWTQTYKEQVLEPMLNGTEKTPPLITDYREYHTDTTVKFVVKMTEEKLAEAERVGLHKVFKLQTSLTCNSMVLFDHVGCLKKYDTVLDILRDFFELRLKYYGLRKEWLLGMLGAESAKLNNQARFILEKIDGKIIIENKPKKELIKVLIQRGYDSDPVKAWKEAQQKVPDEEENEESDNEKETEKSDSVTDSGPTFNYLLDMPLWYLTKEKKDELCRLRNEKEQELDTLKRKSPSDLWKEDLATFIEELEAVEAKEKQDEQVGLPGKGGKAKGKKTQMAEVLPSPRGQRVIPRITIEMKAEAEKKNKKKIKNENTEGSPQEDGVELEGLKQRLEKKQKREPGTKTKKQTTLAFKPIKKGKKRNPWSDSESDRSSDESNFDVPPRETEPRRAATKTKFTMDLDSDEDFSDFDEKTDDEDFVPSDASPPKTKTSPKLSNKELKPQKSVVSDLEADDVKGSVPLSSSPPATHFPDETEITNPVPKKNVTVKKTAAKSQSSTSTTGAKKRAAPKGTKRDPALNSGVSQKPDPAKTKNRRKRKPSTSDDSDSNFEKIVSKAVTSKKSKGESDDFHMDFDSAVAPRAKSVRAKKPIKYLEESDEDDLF

Row | Activity | IC50 | Structure (SMILES)
1 | Dose-dependent effect | 75.7 µM | C=C(C)[C@@H]1CC=C2[C@@H](CC[C@]3(C)[C@@H]([C@H](C)C[C@@H]4C[C@@H](C)C(=O)O4)CC[C@@]23C)[C@@]1(C)CCC(=O)OC
2 | Dose-dependent effect | 67.3 µM | C=C(C)[C@@H]1CC=C2[C@@H](CC[C@]3(C)[C@@H]([C@H](C)CC(=O)C[C@@H](C)C(=O)OC)CC[C@@]23C)[C@@]1(C)CCC(=O)OC
3 | Dose-dependent effect | 50.4 µM | C=C(C)[C@@H]1CC=C2[C@@H](CC[C@]3(C)[C@@H]([C@H](C)C[C@H](O)C[C@@H](C)CO)CC[C@@]23C)[C@@]1(C)CCCO
4 | Dose-dependent effect | 42.6 µM | C=C(C)[C@@H]1CC=C2[C@@H](CC[C@]3(C)[C@@H]([C@H](C)C[C@@H]4C[C@@H](C)C(=O)O4)CC[C@@]23C)[C@@]1(C)CCC(=O)O

species on record: Homo sapiens; experiment: Inhibition of human DNA topoisomerase 1 at 200 uM

Row | Activity | Structure (SMILES)
5 | inactive | C=C(C)[C@@H]1CC=C2[C@@H](CC[C@]3(C)[C@@H]([C@H](C)C[C@@H]4C[C@@H](C)C(=O)O4)CC[C@@]23C)[C@@]1(C)CCC(=O)OC
6 | inactive | C=C(C)[C@@H]1CC=C2[C@@H](CC[C@]3(C)[C@@H]([C@H](C)CC(=O)C[C@@H](C)C(=O)O)CC[C@@]23C)[C@@]1(C)CCC(=O)O
7 | inactive | C=C(C)[C@@H]1CC=C2[C@@H](CC[C@]3(C)[C@@H]([C@H](C)CC(=O)C[C@@H](C)C(=O)OC)CC[C@@]23C)[C@@]1(C)CCC(=O)OC
8 | inactive | C=C(C)[C@@H]1CC=C2[C@@H](CC[C@]3(C)[C@@H]([C@H](C)C[C@H](O)C[C@@H](C)CO)CC[C@@]23C)[C@@]1(C)CCCO
9 | inactive | C=C(C)[C@@H]1CC=C2[C@@H](CC[C@]3(C)[C@@H]([C@H](C)C[C@@H]4C[C@@H](C)C(=O)O4)CC[C@@]23C)[C@@]1(C)CCC(=O)O

biological target: T1, DNA topoisomerase 2-alpha; experiment: Inhibition of human DNA topoisomerase 2alpha at 200 uM

Row | Activity | inhibition | Structure (SMILES)
10 | Active |  | C=C(C)[C@@H]1CC=C2[C@@H](CC[C@]3(C)[C@@H]([C@H](C)C[C@@H]4C[C@@H](C)C(=O)O4)CC[C@@]23C)[C@@]1(C)CCC(=O)OC
11 |  | 4% | C=C(C)[C@@H]1CC=C2[C@@H](CC[C@]3(C)[C@@H]([C@H](C)CC(=O)C[C@@H](C)C(=O)O)CC[C@@]23C)[C@@]1(C)CCC(=O)O
12 | Active |  | C=C(C)[C@@H]1CC=C2[C@@H](CC[C@]3(C)[C@@H]([C@H](C)CC(=O)C[C@@H](C)C(=O)OC)CC[C@@]23C)[C@@]1(C)CCC(=O)OC
13 | Active |  | C=C(C)[C@@H]1CC=C2[C@@H](CC[C@]3(C)[C@@H]([C@H](C)C[C@H](O)C[C@@H](C)CO)CC[C@@]23C)[C@@]1(C)CCCO
14 | Active |  | C=C(C)[C@@H]1CC=C2[C@@H](CC[C@]3(C)[C@@H]([C@H](C)C[C@@H]4C[C@@H](C)C(=O)O4)CC[C@@]23C)[C@@]1(C)CCC(=O)O
